US5541168A, “Substituted 2-(phosphinyloxymethyl)-1,2,5-thiadiazolidin-3-one 1,1-dioxides and compositions and method of use thereof” (Sterling Winthrop Inc., priority 1994, dated 1996)
Like-named read-outs stand apart in the source and are kept apart here.

Target: T1, human leukocyte elastase (Homo sapiens, UniProt P08246)
T1 sequence (P08246 30-247 limits assumed): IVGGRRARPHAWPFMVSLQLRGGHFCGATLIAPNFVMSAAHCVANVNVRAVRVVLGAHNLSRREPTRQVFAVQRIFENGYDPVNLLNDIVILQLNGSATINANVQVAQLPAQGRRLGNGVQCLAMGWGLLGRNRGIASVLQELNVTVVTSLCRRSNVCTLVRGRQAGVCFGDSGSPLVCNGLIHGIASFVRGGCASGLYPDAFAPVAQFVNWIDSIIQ
Experiment: human leukocyte elastase inhibitory activity (MeOSuc-Ala-Ala-Pro-Val-pNA substrate, absorbance progress curves)
Type: biochemical
Procedure: The test compound (inhibitor) is dissolved in DMSO in a vial to produce an inhibitor stock solution which has a concentration in the range of 200-1000 μM. The inhibitor stock solution is diluted (1:4, 1:16 and 1:64) into assay vials (vials 1, 2 and 3 respectively) containing 2.4 mL of buffer solution (50 mM N-[2-hydroxyethyl]piperazine-N'-[2-ethanesulfonic acid]/NaOH, 500 mM NaCl, pH 7.8 at 25° C.) and DMSO is added so that the total volume in each vial is 3.2 mL. 70 μL, 50 μL, 35 μL and 25 μL of inhibitor from assay vial 1 is placed into the first four wells of a 96-well microtiter plate and each well is made up to 90 μL total volume with the addition of a 25% DMSO/buffer solution. The inhibitor from assay vials 2 and 3 is processed in a similar manner and placed in wells 5-12 respectively to afford a total of 12 different inhibitor concentrations. Four wells (wells 13-16) containing 90 μL of the 25% DMSO/buffer solution but no inhibitor are also run simultaneously with the inhibited wells as a control. 150 μL of substrate solution (prepared by the addition of 500 μL of the human leukocyte elastase (HLE) substrate MeOSuc-Ala-Ala-Pro-Val-pNA (18.7 mM in DMSO) to 19.5 mL of buffer solution) is then added simultaneously into each of the 16 wells and the solution in each well was thoroughly mixed.
The 96-well microtiter plate is placed into a Microplate Reader #89815A spectrophotometer and 110 μL of the enzyme solution (prepared as follows: a mixture of 20 mL of buffer solution and 20 mg of bovine serum albumen is gently vortexed in a scintillation vial and 5 μL HLE stock solution (1 mg/mL dissolved in deionized water) is added) is added simultaneously to each of the 16 wells. Each of the solutions in the wells is throughly mixed and then the time-dependent absorbance data is collected at an absorbance of 410 nm until the assay is complete. It should be noted that although this assay method can be done manually, it is preferred to perform the assay robotically using a Hewlett Packard MicroAssay System Robot.
A plot of the absorbance versus time data thus obtained affords progress curves the final slope of which is equal to the final steady-state velocities (VF). Using the program ENZFITTER (Elsevier software), the progress curves for the four control assays ([I]=0) are fit by linear regression to yield the enzyme reaction velocity values in the absences of inhibitor (Vo) which are averaged to produce a single fixed value. The inhibition constant Ki (nM) is then obtained from a plot of [formula] which affords a linear plot wherein: [formula] and [S] is the concentration of the substrate and Km is the Michaelis constant.
Table V summarizes the results obtained from the testing of representative compounds of the invention for human leukocyte elastase inhibitory activity.

Ki (human leukocyte elastase, substrate MeOSuc-Ala-Ala-Pro-Val-pNA, pH 7.8, 25° C. buffer, read-out: Ki) [nM]	SMILES	Ki [nM]
	CCCC1C(=O)N(COP(=O)(OCC)OCC)S(=O)(=O)N1C (centres unmarked) [1(i), 2-(diethoxyphosphinyloxymethyl)-4-propyl-5-methyl-1,2,5-thiadiazolidin-3-one 1,1-dioxide]	2
	CCCC1NS(=O)(=O)N(COP(=O)(OCC)OCC)C1=O (centres unmarked) [3(f), 2-(diethoxyphosphinyloxymethyl)-4-propyl-1,2,5-thiadiazolidin-3-one 1,1-dioxide]	25
	CCOP(=O)(OCC)OCN1C(=O)C2CCCCN2S1(=O)=O (centres unmarked) [17(f), 2-(diethoxyphosphinyloxymethyl)-1,2,5-thiadiazolo[2,3-a]3,3a,4,5,6,7-hexahydropyridine-3-one 1,1-dioxide]	500
	CCOP(=O)(OCC)OCN1C(=O)C(C(C)C)N(C)S1(=O)=O (centres unmarked) [2(i), 2-(diethoxyphosphinyloxymethyl)-4-isopropyl-5-methyl-1,2,5-thiadiazolidin-3-one 1,1-dioxide]	680
1.5	CC(C)CCC1C(=O)N(COP(=O)(OCc2ccccc2)OCc2ccccc2)S(=O)(=O)N1C (centres unmarked) [4(j), 2-(dibenzyloxyphosphinyloxymethyl)-4-(3-methylbutyl)-5-methyl-1,2,5-thiadiazolidin-3-one 1,1-dioxide]	
